Several values for one entry are separate records, joined by “and”; a condition that tells them apart may be missing. Identical values can stand only once.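 All cell lines were grown in 96-well plates and treated with compound for 48 hours. GI50 marks 50% less growth. TGI is the concentration that stops growth completely.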
How the values were obtained:
Test in all cases: NCI tumour cell line growth inhibition, 48 h
RXF 393 renal = tested on: RXF 393 renal
LOX IMVI melanoma = tested on: LOX IMVI melanoma
HT29 colon = tested on: HT29 colon
ACHN renal = tested on: ACHN renal
SF-295 CNS = tested on: SF-295 CNS
NCI-H460 lung = tested on: NCI-H460 lung
HOP-62 NSCLC = tested on: HOP-62 NSCLC
SF-539 CNS = tested on: SF-539 CNS
NCI-H522 lung = tested on: NCI-H522 lung
KM12 colon = tested on: KM12 colon
OVCAR-5 ovarian = tested on: OVCAR-5 ovarian
PC-3 prostate = tested on: PC-3 prostate
NCI/ADR-RES ovarian = tested on: NCI/ADR-RES ovarian
MDA-N = tested on: MDA-N
BT-549 breast = tested on: BT-549 breast

| SMILES | TGI (RXF 393 renal) | TGI (LOX IMVI melanoma) | TGI (HT29 colon) | TGI (ACHN renal) | TGI (SF-295 CNS) | TGI (NCI-H460 lung) | TGI (HOP-62 NSCLC) | TGI (SF-539 CNS) | TGI (NCI-H522 lung) | TGI (KM12 colon) | TGI (OVCAR-5 ovarian) | TGI (PC-3 prostate) | TGI (NCI/ADR-RES ovarian) | TGI (MDA-N) | TGI (BT-549 breast) | GI50 (RXF 393 renal) | GI50 (HT29 colon) | GI50 (ACHN renal) | GI50 (SF-295 CNS) | GI50 (KM12 colon) |
| --- | --- | --- | --- | --- | --- | --- | --- | --- | --- | --- | --- | --- | --- | --- | --- | --- | --- | --- | --- | --- |
| CC(=O)NC1=C(NCCO)C(=O)c2ccccc2C1=O | > 50 µM | > 50 µM | > 50 µM | > 50 µM | > 50 µM | > 50 µM | > 50 µM | > 50 µM | > 50 µM | > 50 µM | – | – | – | – | – | – | – | – | – | – |
| O=C1NCC2(CCN(CC3COc4ccccc4O3)CC2)N1c1ccccc1 (stereo not drawn) | > 100 µM | > 100 µM | > 100 µM | > 100 µM | > 100 µM | > 100 µM | > 100 µM | > 100 µM | > 100 µM | > 100 µM | > 100 µM | > 100 µM | > 100 µM | – | – | – | – | – | – | – |
| N#Cc1ccc(N=NN2CCCC2)cc1 | > 100 µM | > 100 µM | – | > 100 µM | > 100 µM | > 100 µM | > 100 µM | > 100 µM | > 100 µM | > 100 µM | > 100 µM | > 100 µM | > 100 µM | > 100 µM | > 100 µM | – | – | – | – | – |
| O=C(O)CNc1ncc2c(n1)-c1ccccc1OC2 | > 100 µM | > 100 µM | > 100 µM | > 100 µM | > 100 µM | > 100 µM | > 100 µM | > 100 µM | – | > 100 µM | > 100 µM | > 100 µM | > 100 µM | > 100 µM | – | – | – | – | – | – |
| COc1cccc(C2c3cc4c(cc3OC(N3CCCC3)C2c2ccccc2)OCO4)c1O (stereo not drawn) | – | 46.2 µM | 26.2 µM | 25.8 µM | 30.3 µM | 33.7 µM | 47.6 µM | 21.7 µM | 58.4 µM | 18.7 µM | 75.2 µM | 27 µM | 67.2 µM | 24.6 µM | – | – | – | – | – | – |
| C#CCNC(CCCN=C(N)N)C(=O)O (stereo not drawn) | > 100 µM | > 100 µM | > 100 µM | > 100 µM | > 100 µM | > 100 µM | > 100 µM | – | > 100 µM | > 100 µM | > 100 µM | > 100 µM | > 100 µM | – | > 100 µM | – | – | – | – | – |
| O=C(NC1C(=O)NC(CCc2ccccc2)NC1=O)OCc1ccccc1 (stereo not drawn) | > 100 µM | > 100 µM | > 100 µM | > 100 µM | > 100 µM | > 100 µM | > 100 µM | > 100 µM | > 100 µM | > 100 µM | > 100 µM | > 100 µM | > 100 µM | – | – | – | – | – | – | – |
| Cc1cc(O)c(C(O)c2ccccn2)cc1O (stereo not drawn) | 30.2 µM | 30.8 µM | 44 µM | 18.4 µM | > 100 µM | > 100 µM | > 100 µM | > 100 µM | 14.7 µM | 82.3 µM | 33.8 µM | 29.1 µM | 72.6 µM | 36.2 µM | – | – | – | – | – | – |
| O=C1/C(=C/c2ccc([N+](=O)[O-])cc2)Oc2cc(O)ccc21 | > 100 µM | – | – | 56.1 µM | > 100 µM | > 100 µM | > 100 µM | 94.4 µM | 65.6 µM | > 100 µM | – | 66.8 µM | 88.3 µM | 60.2 µM | 78.7 µM | – | – | – | – | – |
| C=CCNC(=S)NC=C(C(N)=O)C(N)=O | > 100 µM | > 100 µM | > 100 µM | > 100 µM | > 100 µM | > 100 µM | > 100 µM | > 100 µM | > 100 µM | > 100 µM | > 100 µM | > 100 µM | > 100 µM | > 100 µM | – | – | – | – | – | – |
| COc1cc(CNc2ccc(C)cc2)cc(OC)c1OC | – | > 100 µM | 0.852 µM | > 100 µM | 0.439 µM | > 23.8 µM and 3.92 µM | > 100 µM | – | 0.435 µM and 0.83 µM | 2.33 µM | > 100 µM | – | – | – | – | 0.239 µM | 0.156 µM | 0.674 µM and 0.216 µM | 0.155 µM and 0.333 µM | 0.104 µM and 0.341 µM |
| CCCCCCCCC#CCCCCCCC(F)C(=O)O (stereo not drawn) | > 100 µM | > 100 µM | > 100 µM | > 100 µM | > 100 µM | > 100 µM | > 100 µM | > 100 µM | > 100 µM | > 100 µM | > 100 µM | > 100 µM | > 100 µM | – | – | – | – | – | – | – |
| c1ccc2c(c1)n1c(N3CCCC3)[n+]3ccccc3c1c1c3cccc[n+]3c(N3CCCC3)n21 | > 100 µM | > 100 µM | – | > 100 µM | > 100 µM | > 100 µM | – | > 100 µM | > 100 µM | > 100 µM | > 100 µM | > 100 µM | > 100 µM | – | > 100 µM | – | – | – | – | – |
| CN(C)Cc1cc(C(=O)/C=C/c2ccc(Cl)cc2Cl)cc(CN(C)C)c1O | 10.7 µM | 2.49 µM | 6.91 µM | 10.9 µM | 14 µM | 4.4 µM | 12.9 µM | 17 µM | 7.29 µM | 4.51 µM | 28.7 µM | 6.19 µM | 5.7 µM | 5.92 µM | – | – | – | – | – | – |
| c1ccc(CSCCC(SCc2ccccc2)SCc2ccccc2)cc1 | > 10 µM | > 10 µM | > 10 µM | > 10 µM | > 10 µM | > 10 µM | > 10 µM | > 10 µM | > 10 µM | > 10 µM | – | > 10 µM | > 10 µM | > 10 µM | – | – | – | – | – | – |
| COc1cc(C(C)c2cc3c(cc2OCCCCCOc2cc4c(cc2C(C)c2cc(OC)c(OC)c(OC)c2)OCO4)OCO3)cc(OC)c1OC (stereo not drawn) | > 100 µM | > 100 µM | > 100 µM | > 100 µM | > 100 µM | > 100 µM | > 100 µM | > 100 µM | > 100 µM | > 100 µM | > 100 µM | – | – | – | – | – | – | – | – | – |
| O=C(CC(=O)n1nc(-c2ccccc2)c(N=Nc2ccc([N+](=O)[O-])cc2)c1-c1ccccc1)Nc1ccc(Cl)cc1 | 51.3 µM | > 100 µM | 58.5 µM | 19.2 µM | > 100 µM | > 100 µM | 42.7 µM | 75.8 µM | > 100 µM | > 100 µM | > 100 µM | – | – | – | – | – | – | – | – | – |
| COc1c(O)ccc(/C=N/NC(=S)NCOCCOC(C)=O)c1OC | > 100 µM | > 100 µM | > 100 µM | > 100 µM | > 100 µM | > 100 µM | > 100 µM | > 100 µM | > 100 µM | > 100 µM | > 100 µM | – | – | – | – | – | – | – | – | – |

Reference: PubChem BioAssay (NCI)
